Experimental data published in article PMC11865978, “Cellular Activity of CQWW Nullomer-Derived Peptides” (ACS Omega, 2025).

How the values were obtained:
Format in all cases: cell-based, human
GCGR-E13 = assay: Multiparametric cell painting phenotypic profile (PCA); conditions: 1-16 μM, compared with control polyarginine peptide 15 and DMSO
Protocol: Figure 1 (A) 3D model of the CQWW peptide with residue labels shown in red. (B) Dose-dependent effect of peptide 2 (RRRRRCQWW) on cell survival across a range of cell lines, with fitted IC50 values shown below. (C) Representative live cell brightfield images of peptide 2 (RRRRRCQWW, 6 μM) against the glioblastoma stem cell line (GCGR-E28) versus normal neural stem cells (GCGR-NS9FB_B) after 3 h of incubation. (D) 3D principal component analysis (PCA 1, 2, and 3) from multiparametric cell painting image analysis of the GCGR-E13 cell line. […]
The phenotypic effect of the peptides was visualized by live cell imaging (Figure 1C, IncuCyte live cell imager) and also quantified via image analysis of cells labeled with the cell painting reagents (see Supporting Information) followed by image analysis using Cell Profiler (cellprofiler.org). […]
(§1) BSA/PBS. […] The data was then analyzed using a custom CellProfiler software pipeline using the University of Edinburgh high performance computing cluster. Dose response plots were calculated using HC StratomineR (corelifeanalytics.com). Nuclei count data was analyzed separately to generate cell survival metrics (normalized to aqueous glycerol/TX -100 control).
(§2) Dose response curves were fitted and IC50 values calculated using Prism GraphPad (graphpad.com). […]

[1] = system: patient-derived glioblastoma cell lines; assay: Cell survival by nuclei counts, summarised across cell lines; conditions: ratio of nuclei-count IC50s
Protocol: (§3) Peptides were tested in an automated image-based high-content[42] cell painting[43],[44] assay that was originally developed to explore the mechanism of action of pharmacological and genetic perturbations within cells,[45] as well as a live cell imaging assay against six patient-derived glioblastoma cell lines (GCGR-E13, GCGR-E28, GCGR-E21, GCGR-E57, GCGR-E31, and GCGR-E34), covering classical, mesenchymal, and proneural subtypes, respectively (see Methods and Figure 1B–D), along with a healthy human fetal neuronal stem cell line (GCGR-NS9FB_B).
(§4) Cell survival was quantified by nuclei counts from the Hoechst dye-stained nuclei and IC50 values calculated along with 95% confidence intervals (Figure 1B; see Table S2 for full details). […]
(§5) High Content Phenotypic Screening assays
(§6) Cell lines (glioma stem cell lines and normal foetal neural stem cells) were seeded on laminin (10 µg/mL) coated 384-well plates (Greiner Bio-One, 781091) at 1,000 cells/well and incubated overnight at 37 °C and 5% CO2. […]
as §1, with “control). […]” for “control).”

[2] = system: mitochondria, all cell lines including GCGR-NS9FB_B; assay: Mitotracker stain intensity in cell painting assay; conditions: compared with Peptide 15 control
Protocol: Figure S4 – Network analysis (STRING) showing protein interactions resulting from treatment with […]
2nd shell) <10. Top ranked Gene Ontology (GO terms) for biological processes is listed (top right) with Log[False Discovery Rate] indicated.
as §5
as §6, with “CO2. Aqueous peptide solutions (10 mM) were further diluted to 1 mM in water containing 10 % glycerol and 0.01 % TX-100.” for “CO2.”
as §1, §2
Figure S5 – The CellProfiler-derived feature “MedianNucleiIntensityMADIntensityW5”, reading out mitotracker stain intensity observed in cell nuclei after treatment with the Peptide 2 nullomer (blue) and Peptide 15 (control). […]

GCGR-E31 = conditions: 72 h
Protocol: as §3, §4, §5
(§7) Cell lines (glioma stem cell lines and normal foetal neural stem cells) were seeded on laminin (10 µg/mL) coated 384-well plates (Greiner Bio-One, 781091) at 1,000 cells/well and incubated overnight at 37 °C and 5% CO2. Aqueous peptide solutions (10 mM) were further diluted to 1 mM in water containing 10 % glycerol and 0.01 % TX-100. Cells were dosed using a D300 digital dispenser (Tecan) by 10-point dose response (30 µM – 1 µM) in triplicate and with aqueous glycerol/TX-100 as control. The cells were placed in an IncuCyte live cell imager (Essen BioScience) and imaged every three hours for 72 hours. Prior to fixation, the plates were removed from the IncuCyte and stained with Mitrotracker DeepRed (Invitrogen, M22426, 300 nM, 30 minutes). Cells were then fixed using 4 % formaldehyde and permeabilized with 0.1 % TX-100 in PBS. The cells were stained with ‘Cell Painting’ […]
(§8) assay reagents1: Hoechst 33342 (10 mg/mL stock, Molecular Probes, 1:5000), SYTO14 […]
(§9) BSA/PBS. The plates were imaged using an ImageXpress high content microscope (Molecular Devices). Cells were imaged with a 20× objective, covering 6 fields-of-view in each well. The data was then analyzed using a custom CellProfiler software pipeline using the University of Edinburgh high performance computing cluster. Dose response plots were calculated using HC StratomineR (corelifeanalytics.com). Nuclei count data was analyzed separately to generate cell survival metrics (normalized to aqueous glycerol/TX -100 control). […]

GCGR-E28 = conditions: 72 h
Protocol: as §3, §4, §5, §7, §8, §9

H-RRRRRCQWW-NH2 [Peptide 2]
phenotypic profile in 3D principal component plot of cell painting features (GCGR-E13): strong, dose-dependent phenotype | selectivity for reduction in nuclei counts, glioblastoma stem cells compared to normal neural stem cells (GCGR-NS9FB_B) [1]: 1.5- to 2 fold | mitotracker stain intensity in cell nuclei (MedianNucleiIntensityMADIntensityW5) [2]: reduce mitotracker intensity in a dose dependent manner | mitotracker stain intensity in cells (MedianCellsIntensityMeanIntensityW5) [2]: reduce mitotracker intensity in a dose dependent manner | IC50 (GCGR-E31): 5.1 µM | IC50 (GCGR-E28): 5.4 µM
